# How the values were obtained:
# [1] = system: PD-1 positive (transduced) KG-1 cells; assay: IFN gamma secretion assay in PD-1 transduced KG-1 cells (Example 11); format: cell-based, human
# Method: (§1) The KG-1 cell line was used to generate a PD-1 expressing cell line and furthermore, to measure IFNγ release upon incubation with IL-18 variants and corresponding IL-18 immunocytokines.
# PD-1 expressing cell line generation: Briefly, KG-1 cells were transduced using lentiviral particles carrying the human PD-1 gene (PDCD1 NM_005018; Origene, CAT #: RC210364L3V) at a MOI (Multiplicity of Infection) of 30. Spinfection was performed at 1260 g during 90 min at 37° C. in the presence of 5 μg/ml of Polybrene and 10 mM of HEPES in complete culture media (RPMI, 10% FBS, 1% L-Glutamine). Five days after transduction, puromycin at a final concentration of 1 ug/ml was added to select for PD-1 positive cells. For culture maintenance, puromycin concentration was decreased to 0.5 μg/ml. Stable and homogenous expression of PD-1 was verified by surface staining (BD Pharmingen, #557860).
# (§2) IFNγ release was assessed in PD-1 positive (transduced) KG-1 cells, as well as in the parental PD-1 negative cells. 0.5×10^5 cells were seeded into a 96-well U-bottom plate in culture media (RPMI, 10% FBS, 1% L-Glutamine) and stimulated with IL-18 variants/ICs for 20-24 h. The test items were diluted to 100 nM in culture medium, followed by 7 10-fold serial dilutions. The lowest concentration assessed was […]. After incubation, IFNγ release was measured using the LEGENDplex custom human mix and match KIT (Biolegend LEGENDplex™ Human IFN-γ Capture Bead B5, 13X #740942, LEGENDplex™ HU Essential Immune Response Panel Detection Abs, #740931, LEGENDplex™ Buffer Set A #740368). To this end, cell culture supernatant was collected and diluted 1:1 with Assay Buffer. Fluorescence measurements were done with a Quanteon Flow Cytometer from Acea Biosciences. For analysis, MFI values (median fluorescence intensity) were exported and plotted against concentrations used. The EC50 values (half maximal effective concentration) were calculated based on a variable slope and four parameter analysis using GraphPad PRISM software version 9.
# [2] = system: parental PD-1 negative KG-1 cells; assay: IFN gamma secretion assay in parental PD-1 negative KG-1 cells (Example 11); format: cell-based, human; settings: IFNγ secretion
# Method: as §1, §2
# [3] = biological target: T1, human IL-18 Binding Protein (IL-18BP) (Homo sapiens, UniProt O95998); assay: IL-18 Binding Protein alphaLISA assay (Example 12); settings: human IL-18BP
# T1 sequence (O95998 31-194): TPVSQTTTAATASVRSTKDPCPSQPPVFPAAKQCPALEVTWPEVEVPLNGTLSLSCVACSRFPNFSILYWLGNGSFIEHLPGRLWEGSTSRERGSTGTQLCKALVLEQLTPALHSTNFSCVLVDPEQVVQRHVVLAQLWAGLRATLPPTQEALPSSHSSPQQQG
# Method: Wild type or modified IL-18 polypeptides samples were diluted at 5.6 μM in a solution of 1× alphaLISA Immunoassay Buffer provided in the alphaLISA IFNγ Detection kit and were diluted applying 3-fold serial dilutions down to […] in 384 deep well plates. A solution of 10 ng/ml of human IL-18BP-His was prepared with 1×alphaLISA Immunoassay Buffer. IL-18/IL-18BP complex formation was performed incubating 30 μl of IL-18BP solution to IL-18 sample titrations for 1 h at 20° C. IL-18BP standard was prediluted from stock solution supplied in alphaLISA IFNγ Detection kit at 100 ng/ml with 1×alphaLISA Buffer and titration prepared from applying 2-fold serial dilutions. The following solutions were prepared: a 50 μg/ml solution of anti-IL-18BP alphaLISA Acceptor beads, a 5 nM solution of biotinylated anti-IL18BP antibody and a 80 μg/ml light-protected solution of Streptavidin Donor beads in 1×alphaLISA Immunoassay Buffer. […]
# 5 μl of Biotinylated anti-IL-18BP antibody were added, followed by a short centrifugation step at 150 g, and incubated for 60 minutes at 20° C. under shaking at 750 rpm. […] AlphaLisa signal was then measured on an Enspire plate reader (Perkin Elmer) using 680 and 615 nm as excitation and emission wavelengths respectively. […]
# [4] = system: parental PD-1negative NK-92 cells; assay: IFN gamma secretion assay in parental PD-1 negative NK-92 cells (Example 17); format: cell-based, human; settings: IFNγ secretion
# Method: (§3) To show selectivity of the anti-PD1-IL18 immunocytokine (IC) for PD-1 positive cells, the NK-92 cell line was used to generate a PD-1 expressing cell line and furthermore, to measure IFN[…] release upon incubation with IL-18 variants and ICs.
# (§4) On the day of experiment, parental PD-1negative and PD-1positive transduced cells were harvested and washed with PBS 1× and resuspended in medium (w/o IL-2) containing 1 ng/ml of recombinant human Interleukin-12 (SinoBiologicals, Cat #CT011-H08H). After counting, cells were seeded at 100 000 cells/well in a 384 well culture plate and incubated at 37° C./5% CO2. When indicated, cells were preincubated with anti-PD-1 antibody LZM-009 at 17 uM during 30 min at 37° C. […] The lowest concentration assessed was 0.8 fM.
# (§5) After 16-20 h incubation at 37° C./5% CO2, 5 μl of supernatant were carefully transferred to a 384 microwell OptiPlate (Perkin Elmer; Cat #6007270) and Interferon-gamma (IFNγ) levels were measured using the Human IFNγ AlphaLISA Assay Kit (Perkin Elmer, Cat #AL217C). […] AlphaLISA signal was then measured on an Enspire plate reader (Perkin Elmer) using 680 and 615 nm as excitation and emission wavelengths respectively. Half maximal effective concentration (EC50) was calculated based on a variable slope, four parameter analysis using GraphPad PRISM software.
# [5] = system: PD-1positive transduced NK-92 cells; assay: IFN gamma secretion assay in PD-1 positive transduced NK-92 cells (Example 17); format: cell-based, human
# Method: as §3, §4, §5
substance,measurement,setting,value
SEQ ID NO: 1: Native sequence of human IL-18 (bioactive form) [reference compound],EC50,"[1]; IFNγ secretion, PD-1 transduced KG-1",0.297 nM
same,PD-1^neg/PD-1^pos EC50 ratio,[1]; KG-1 cells,1.298
same,EC50,[2],0.387 nM
same,Kd,[3],0.411 nM
same,EC50,[4],0.158 nM
same,EC50,[5]; IFNγ secretion,0.13 nM
same,PD-1^neg/PD-1^pos EC50 ratio,[5]; NK-92 cells,1.4

# From US20250186597A1, “TARGETED IMMUNE ACTIVATION WITH IL-18 IMMUNOCYTOKINES” (BRIGHT PEAK THERAPEUTICS AG, priority 2023, published 2025)
